Reference: patent publication EP0185961A2, “1-Phenyl-imidazole-5-carboxylic acid derivatives, process for their preparation and their use as growth regulators” (HOECHST AKTIENGESELLSCHAFT, priority 1984, dated 1986)
Like-named read-outs stand apart in the source and are kept apart here.

Legend:
Gerste = assay: Growth inhibition in cereals, greenhouse tray test, sprayed at 3-leaf stage; assay type: in vivo; settings: % of growth increment of untreated controls; for pest or weed control at 1250 g/ha / pest or weed control at 2500 g/ha: read-out: Wuchsshemmung in % bei Gerste
From the text: (§1) In Schalenversuchen im Gewächshaus werden junge Getreidepflanzen (Weizen, Gerste, Roggen) im 3-Blattstadium mit erfindungsgemäßen Verbindungen in verschiedenen Wirkstoffkonzentrationen (kg/ha) tropfnaß gespritzt.
(§2) Es wird außerdem die phytotoxische Wirkung der Verbindung beobachtet.

[1] = tested on: Getreidepflanzen (Weizen, Gerste, Roggen); assay: Phytotoxic effect observed in the cereal growth inhibition test; assay type: in vivo; settings: cereals; one cell for 2,5 and 1,25 kg/ha
From the text: as §1, §2

Roggen = assay: Growth inhibition in cereals, greenhouse tray test, sprayed at 3-leaf stage; assay type: in vivo; settings: % of growth increment of untreated controls; for pest or weed control at 1250 g/ha / pest or weed control at 2500 g/ha: read-out: Wuchsshemmung in % bei Roggen
From the text: (§3) In Schalenversuchen im Gewächshaus werden junge Getreidepflanzen (Weizen, Gerste, Roggen) im 3-Blattstadium mit erfindungsgemäßen Verbindungen in verschiedenen Wirkstoffkonzentrationen (kg/ha) tropfnaß gespritzt. […]

Weizen = assay: as above; assay type: in vivo; settings: % of growth increment of untreated controls (100% = growth standstill); for pest or weed control at 1250 g/ha / pest or weed control at 2500 g/ha: read-out: Wuchsshemmung in % bei Weizen
From the text: as §3

Sojabohnen [2] = assay: Growth inhibition in soybeans; settings: for pest or weed control at 2500 g/ha: Glycine max, 504 h, read-out: Wuchsshemmung (%); for Phytotox. Wirkung: soybeans, 2,5 kg/ha
From the text: (§4) Etwa 10 cm große Sojabohnen werden mit den Wirkstoffzubereitungen tropfnaß bespritzt. Nach 3 Wochen wird bonitiert.
(§5) Die Wuchshemmung wird als prozentualer Wert ermittelt, wobei 100% den Stillstand des Wachstums und 0% ein Wachstum entsprechend dem der unbehandelten Kontrollpflanzen bedeuten.

Reispflanzen [3] = settings: in vivo
From the text: (§6) Reispflanzen werden in Kleinparzellen (2 m x 2 m) angezogen und im Stadium der maximalen Bestockung mit erfindungsgemäßen Verbindungen behandelt. Die Substanzen werden sowohl durch Spritzung appliziert als auch in das Wasser gegeben.
(§7) 3 Wochen nach der Behandlung wird bei allen Pflanzen der Zuwachs gemessen und die Wuchshemmung in % des Zuwachses der Kontrollpflanzen berechnet. Es wird außerdem auf eine mögliche phytotoxische Wirkung der Verbindungen geachtet.
as §5

Reispflanzen [4] = assay: Growth inhibition in paddy rice, small plots; settings: for pest or weed control at 620 g/ha / pest or weed control at 1250 g/ha: Oryza sativa, 504 h, read-out: Wuchsshemmung (%); for Phytotox. Wirkung: paddy rice, one cell for 1,25 and 0,62 kg/ha
From the text: as §6, §7, §5

Sojabohnen [5] = settings: in vivo
From the text: as §4, §5

“2-Chlorethyltriethylammoniumchlorid [reference compound]” was tested, and the “Wuchsshemmung in % bei Gerste” value (Gerste; 1,25 kg/ha) was 0%, the “Wuchsshemmung in % bei Gerste” value (Gerste; 2,5 kg/ha) was 8% and the “Phytotox. Wirkung” value [1] was “keine Schäden”. For the same molecule, the “Wuchsshemmung in % bei Roggen” value (Roggen; 1,25 kg/ha) was 0%, the “Wuchsshemmung in % bei Roggen” value (Roggen; 2,5 kg/ha) was 10% and the “Wuchsshemmung in % bei Weizen” value (Weizen; 1,25 kg/ha) was 23%. For the same molecule, the “Wuchsshemmung in % bei Weizen” value (Weizen; 2,5 kg/ha) was 27%.
In the case of `CCc1cccc(CC)c1-n1cncc1C(=O)ON1C(=O)c2ccccc2C1=O` [Beispiel 2, Pthalimido-1-(2,6-diethylphenyl)-imidazol-5-carboxylat], the pest or weed control at 2500 g/ha (Sojabohnen [2]) is reported as 20%, the “Phytotox. Wirkung” value (Reispflanzen [3]) is reported as “keine Schäden” and the pest or weed control at 1250 g/ha (Gerste; 1,25 kg/ha) is reported as 18%. The pest or weed control at 2500 g/ha (Gerste; 2,5 kg/ha) was 37%, the “Phytotox. Wirkung” value [1] was “keine Schäden” and the pest or weed control at 620 g/ha (Reispflanzen [4]) was 25%. The pest or weed control at 1250 g/ha (Reispflanzen [4]) was 22%, the pest or weed control at 1250 g/ha (Roggen; 1,25 kg/ha) was 21% and the pest or weed control at 2500 g/ha (Roggen; 2,5 kg/ha) was 27%. The pest or weed control at 1250 g/ha (Weizen; 1,25 kg/ha) was 12%, the pest or weed control at 2500 g/ha (Weizen; 2,5 kg/ha) was 23% and the “Phytotox. Wirkung” value (Sojabohnen [5]) was “keine Schäden”.
`CCc1cccc(CC)c1-n1cncc1C(=O)NCCO` [Beispiel 3, N-(2-Hydroxyethyl)-1-(2,6-diethylphenyl)-imidazol-5-carb-oxyamid] was tested, and the pest or weed control at 2500 g/ha (Sojabohnen [2]) was 21%, the “Phytotox. Wirkung” value (Reispflanzen [3]) was “keine Schäden” and the pest or weed control at 1250 g/ha (Gerste; 1,25 kg/ha) was 17%. The pest or weed control at 2500 g/ha (Gerste; 2,5 kg/ha) was 35%, the “Phytotox. Wirkung” value [1] was “keine Schäden” and the pest or weed control at 620 g/ha (Reispflanzen [4]) was 16%. It also gave a pest or weed control at 1250 g/ha (Reispflanzen [4]) of 21%, a pest or weed control at 1250 g/ha (Roggen; 1,25 kg/ha) of 20% and a pest or weed control at 2500 g/ha (Roggen; 2,5 kg/ha) of 26%. The pest or weed control at 1250 g/ha (Weizen; 1,25 kg/ha) was 13%, the pest or weed control at 2500 g/ha (Weizen; 2,5 kg/ha) was 22% and the “Phytotox. Wirkung” value (Sojabohnen [5]) was “keine Schäden”.
In the case of `CCc1cccc(CC)c1-n1cncc1C(=O)OCSC` [Beispiel 4, Methylthiomethyl-1-(2,6-diethylphenyl)-imidazol-5-carboxylat], the pest or weed control at 2500 g/ha (Sojabohnen [2]) is reported as 21%, the “Phytotox. Wirkung” value (Sojabohnen [2]) is reported as “keine Schäden” and the pest or weed control at 1250 g/ha (Gerste; 1,25 kg/ha) is reported as 17%. For the same molecule, the pest or weed control at 2500 g/ha (Gerste; 2,5 kg/ha) was 34%, the “Phytotox. Wirkung” value [1] was “keine Schäden” and the pest or weed control at 620 g/ha (Reispflanzen [4]) was 16%. The pest or weed control at 1250 g/ha (Reispflanzen [4]) was 21%, the “Phytotox. Wirkung” value (Reispflanzen [4]) was “keine Schäden” and the pest or weed control at 1250 g/ha (Roggen; 1,25 kg/ha) was 20%. For the same molecule, the pest or weed control at 2500 g/ha (Roggen; 2,5 kg/ha) was 26%, the pest or weed control at 1250 g/ha (Weizen; 1,25 kg/ha) was 14% and the pest or weed control at 2500 g/ha (Weizen; 2,5 kg/ha) was 21%.
In the case of `CCc1cccc(CC)c1-n1cncc1-c1nnn[nH]1` [Beispiel 5, 1-(2,6-Diethylphenyl)-5-(5-tetrazolyl)-imidazol], the pest or weed control at 2500 g/ha (Sojabohnen [2]) is reported as 18%, the “Phytotox. Wirkung” value (Reispflanzen [3]) is reported as “keine Schäden” and the pest or weed control at 1250 g/ha (Gerste; 1,25 kg/ha) is reported as 13%. For the same molecule, the pest or weed control at 2500 g/ha (Gerste; 2,5 kg/ha) was 30%, the “Phytotox. Wirkung” value [1] was “keine Schäden” and the pest or weed control at 620 g/ha (Reispflanzen [4]) was 11%. The pest or weed control at 1250 g/ha (Reispflanzen [4]) was 19%, the pest or weed control at 1250 g/ha (Roggen; 1,25 kg/ha) was 9% and the pest or weed control at 2500 g/ha (Roggen; 2,5 kg/ha) was 21%. For the same molecule, the pest or weed control at 1250 g/ha (Weizen; 1,25 kg/ha) was 9%, the pest or weed control at 2500 g/ha (Weizen; 2,5 kg/ha) was 18% and the “Phytotox. Wirkung” value (Sojabohnen [5]) was “keine Schäden”.
With `CCc1cccc(CC)c1-n1cncc1C=NO` [Beispiel 14, 1-(2,6-Diethylphenyl)-5-hydroximinomethyl-imidazol] the pest or weed control at 2500 g/ha (Sojabohnen [2]) was 20%, the “Phytotox. Wirkung” value (Sojabohnen [2]) was “keine Schäden” and the pest or weed control at 1250 g/ha (Gerste; 1,25 kg/ha) was 16%. The pest or weed control at 2500 g/ha (Gerste; 2,5 kg/ha) was 32%, the “Phytotox. Wirkung” value [1] was “keine Schäden” and the pest or weed control at 620 g/ha (Reispflanzen [4]) was 13%. For the same molecule, the pest or weed control at 1250 g/ha (Reispflanzen [4]) was 21%, the “Phytotox. Wirkung” value (Reispflanzen [4]) was “keine Schäden” and the pest or weed control at 1250 g/ha (Roggen; 1,25 kg/ha) was 13%. It also gave a pest or weed control at 2500 g/ha (Roggen; 2,5 kg/ha) of 24%, a pest or weed control at 1250 g/ha (Weizen; 1,25 kg/ha) of 11% and a pest or weed control at 2500 g/ha (Weizen; 2,5 kg/ha) of 19%.
For `C#CCOC(=O)c1cncn1-c1c(CC)cccc1CC` [Beispiel 37], the pest or weed control at 2500 g/ha (Sojabohnen [2]) was 17%, the “Phytotox. Wirkung” value (Sojabohnen [2]) was “keine Schäden” and the pest or weed control at 1250 g/ha (Gerste; 1,25 kg/ha) was 12%. The pest or weed control at 2500 g/ha (Gerste; 2,5 kg/ha) was 25%, the “Phytotox. Wirkung” value [1] was “keine Schäden” and the pest or weed control at 620 g/ha (Reispflanzen [4]) was 11%. For the same molecule, the pest or weed control at 1250 g/ha (Reispflanzen [4]) was 19%, the “Phytotox. Wirkung” value (Reispflanzen [4]) was “keine Schäden” and the pest or weed control at 1250 g/ha (Roggen; 1,25 kg/ha) was 7%. It also gave a pest or weed control at 2500 g/ha (Roggen; 2,5 kg/ha) of 19%, a pest or weed control at 1250 g/ha (Weizen; 1,25 kg/ha) of 8% and a pest or weed control at 2500 g/ha (Weizen; 2,5 kg/ha) of 15%.
